Measurements reported in paper PMC9400670, “Establishing the selective phospholipid membrane coordination, permeation and lysis properties for a series of ‘druggable’ supramolecular self-associating antimicrobial amphiphiles” (Chemical Science, 2022).
Values after ≈ are worked out from the molar mass of the structure shown.

Assays:
[1] = test system: MRSA USA300; experiment: MIC50 determination and initial screening from OD600 growth curves, MRSA USA300; type: cell-based, Staphylococcus aureus; settings: Staphylococcus aureus, 15 h, Table S3, conversion of the mM values of Table 1; MRSA USA300; after 900 mins
Description: (§1) The antimicrobial activity of SSAs 1–14 was established against both a model Gram-positive, clinically relevant methicillin resistant Staphylococcus aureus (MRSA), and a model Gram-negative, E. coli bacteria, Table 1. Here MIC50 values are given in mM to enable the derivation of molecular structure: antimicrobial efficacy: physical property relationships. […]
(§2) Data were acquired in endpoint mode. […]
(§3) Section 3: Microbial Methods
(§4) These methods were taken directly from UK Health and Security Office (UKHSA) standard operating […]
(§5) Preparation of Luria Broth media (LB): Yeast extract (5 g), tryptone (10 g) and sodium chloride (10 g) were dissolved in dH₂O (1 L) then divided into bottles and autoclaved.
(§6) Preparation of Luria Broth (LB) agar plates: Agar (6 g) was added to LB (400 mL) and autoclaved. Once cool, the LB agar was poured into sterile petri dishes under sterile conditions and allowed to set. LB plates were stored at 4 °C until use.
(§7) Preparation of bacterial plates: Sterile LB agar plates were streaked using Escherichia coli DH10B or USA300 Methicillin-Resistant Staphylococcus aureus then incubated at 37 °C overnight.
(§8) Preparation of Inoculum: An initial culture was made up by inoculating LB media (5 mL) with a single colony of bacteria under sterile conditions and incubated at 37 °C with shaking overnight. The following day, overnight bacterial cultures were subcultured into fresh LB medium to a starting OD600 […]
(§9) Preparation of 96 well microplate for screening: 20 mM solutions of each compound to be tested were made up using 5 % ethanol. The 1:100 cell suspension (150 µL) was pipetted into the wells and SSA compound solutions (30 µL) were added into each well. The final screening concentration for each compound was 3.3 mM in the well. These were incubated for 20 hours in a plate reader, with optical density readings being taken at 600 nm every 15 minutes. Optical density readings were plotted against time to produce growth curves. […]
(§10) individual wells under sterile conditions. Compounds (30 µL) were added to the wells to equal a total volume of 180 µL in the wells. Six repeats of each concentration for each compound were created each plate. The plates were sealed using parafilm, then incubated at 37°C in a microplate reader for 18-25 hours. Optical density readings were taken at 600 nm every 15 min. Data was used to generate […]
(§11) Calculation of MIC50: Growth curves were plotted using OD600 optical density readings in Microsoft ® Excel ® 2013. OD600 optical density readings 900 minutes from the start of each of these growth cultures for each concentration of compound were plotted in Origin ® 2015. The resultant curve was normalized and fitted using the Boltzmann fit to define the MIC50 values for each compound.

[2] = test system: E. coli DH10B; experiment: MIC50 determination and initial screening from OD600 growth curves, E. coli DH10B; type: cell-based, Escherichia coli; settings: Escherichia coli, 15 h; Table S3, conversion of the mM values of Table 1; E. coli DH10B; after 900 mins
Description: as §1, §2, §3, §4, §5, §6, §7, §8, §9, §10, §11

[3] = test system: calcein loaded phospholipid vesicles (PC, PG, PE-PG mix, E. coli total, E. coli polar); experiment: Synthetic phospholipid vesicle lysis (calcein leakage) assay; settings: SSA 1.5 mM; thirty seconds after SSA addition; five vesicle types; in words
Description: Here, samples of phospholipid vesicles containing the fluorescent dye calcein were prepared. At internal vesicle concentrations, this dye undergoes self-quenching. […] The increase in fluorescence output is proportional to the % of vesicle lysis observed upon the addition of SSAs 1–14, when calibrated against a solution of vesicles know to have undergone 100% lysis, see Fig. 5.
Fig. 5 The average (n = 3) percentage lysis (%) of vesicles (30 μM) composed of five different lipid compositions (Table 2), with an internal calcein concentration of 70 mM at 298 K. The % vesicle lysis was calculated through observation of increasing fluorescence emission (λem = 515 nm), following the addition of SSAs […] (1.5 mM) in a H2O/EtOH 95 : 5 solution after: (a) 30 s and; (b) 15 min. Triton X-100 (1%) was used as a positive control for 100% vesicle lysis. Data normalised to the addition of a H2O/EtOH 95 : 5 solution. Red = PC, yellow = PG, green = PE-PG mix, blue = E. coli total, pink = E. coli polar. Error = standard error.
Section 2: General Methods […]
Preparation of vesicles: All lipids were purchased as powder stocks from Avanti Polar Lipids. Lipid vesicles were prepared according to standard procedures.1 Each phospholipid was dissolved in chloroform (~ 10 mL) and the solvent was removed under reduced pressure. The thin film of dried lipid was further dried in vacuo for at least 2 hours. Lipid films were resuspended in the desired buffer and subjected to 9 freeze-thaw cycles in liquid nitrogen and extruded 20 times through a 200 nm […]
Preparation of calcein loaded vesicles: Lipid films were resuspended in buffer A (70 mM calcein, 10 mM TRIS pH 8.5, 0.5 mM EDTA, 110 mM NaCl, pH adjusted to 6-7) and subjected to 9 freeze-thaw cycles in liquid nitrogen and extruded 20 times through a 200 nm polycarbonate membrane. The suspension was run down a size exclusion column packed with sephadex G-50 using buffer B (10 mM TRIS pH 8.5, 0.5 mM EDTA, 110 mM NaCl). The hydrodynamic dimeter of the lipids was monitored using an Anton Paar LitesizerTM 500 to ensure the separation of free and entrapped calcein.
Phospholipid concentration was adjusted to 30 µM for vesicle leakage experiments.
Vesicle leakage assay: Black bottom 96-well plates were prepared with the appropriate lipid solution (100 µL, 30 µM) and desired SSA solution (100 µL) prepared in H2O/EtOH 95: 5. A solution of 1 % Triton X-100 (16) was used for a 100 % lysis control and a H2O/EtOH 95: 5 solution was used as a 0 % lysis control. Fluorescent measurements were taken at 25 °C using an excitation value of 495 nm and an optimised gain of 983. Data were acquired in endpoint mode. All experiments were repeated in triplicate to ensure experimental reproducibility. […]
Data

[4] = test system: MRSA USA300; settings: n = 3, 0.5 McFarland standard, after 900 min, number in bracket = efficacy rank; cited from earlier work
[5] = test system: E. coli DH10B; settings: after 900 min, cited from earlier work

MIC50 [1] [µg/mL]	MIC50 [2] [µg/mL]	SMILES	vesicle lysis activity [3]	MIC50 MRSA [4]	MIC50 E. coli ([5]; E. coli DH10B, n = 3, 0.5 McFarland standard, number in bracket = efficacy rank)	initial antimicrobial screening, inhibition of growth, E. coli ([5]; 3.3 mM)
1440 (≈ 6.34 mM)	2820 (≈ 12.5 mM)	CCCCNC(=S)NCS(=O)(=O)O [SSA 14]	almost complete loss of any vesicle lysis activity	3.07(9) mM	6.03(9) mM	–
1990 (≈ 9.47 mM)	–	CCCCNC(=O)NCS(=O)(=O)O [SSA 13]	almost complete loss of any vesicle lysis activity	4.41(10) mM	–	^c (SSA did not pass initial antimicrobial screening, exhibited <10% inhibition of growth at 3.3 mM after 900 min and therefore excluded from further study)
